Calls of active or inactive are those of the source. The calls are words filed in the database; no cut-off is given here.
Key:
MRC5 [1] = assay: Ratio of Gemcitabine IC50 to Compound IC50 for human MRC5 cells after 48 hrs by SRB assay; format: functional
A549 [2] = assay: Ratio of Gemcitabine IC50 to Compound IC50 for human A549 cells after 48 hrs by SRB assay; format: functional
T-24 [3] = assay: Ratio of Gemcitabine IC50 to Compound IC50 for human T24 cells after 48 hrs by SRB assay; format: functional
A549 [4] = assay: Induction of H2O2 level in human A549 cells at 1 uM after 30 mins by flow cytometry; format: functional, cell-based
MRC5 [5] = assay: Cytotoxicity against human MRC5 cells after 48 hrs by SRB assay; format: functional, cell-based; details: for IC50: MRC5, 48 h
A549 [6] = assay: Cytotoxicity against human A549 cells after 48 hrs by SRB assay; format: functional, cell-based; details: for IC50: A549, 48 h
[7] = (§1) Cytotoxicity against human T24 cells after 48 hrs by SRB assay; format: functional, cell-based; details: T-24, 48 h
T-24 [8] = assay: as §1; format: functional, cell-based
A549 [9] = assay: Cytotoxicity against human A549 cells assessed as inhibition fraction treated at 2:1 compound to GEM ratio after 48 hrs by SRB assay in presence of GEM; format: functional
A549 [10] = assay: Cytotoxicity against human A549 cells assessed as dose reduction index ratio treated at sequential combination at 2:1 compound to GEM ratio after 48 hrs by SRB assay in presence of GEM; format: functional
A549 [11] = assay: Cytotoxicity against human A549 cells assessed as dose reduction index ratio treated at simultaneous combination at 0.8 fraction inhibition after 48 hrs by SRB assay in presence of alpha-lipoic acid; format: functional
A549 [12] = assay: (§2) Cytotoxicity against human A549 cells assessed as inhibition fraction treated at sequential combination LA + compound sequent. compound for 24 hrs, LA + compound for 24 hrs additional, total 48 hrs 2:1 and 5:1 compound to GEM ratio after 48 hrs by SRB assay in presence of GEM; format: functional
A549 [13] = assay: Cytotoxicity against human A549 cells assessed as dose reduction index ratio treated at sequential combination at 5:1 compound to GEM ratio after 48 hrs by SRB assay in presence of GEM; format: functional
A549 [14] = assay: Induction of H2O2 level in human A549 cells at 1 uM after 5 mins by flow cytometry; format: functional, cell-based
A549 [15] = assay: Cytotoxicity against human A549 cells assessed as inhibition fraction treated at 5:1 compound to GEM ratio after 48 hrs by SRB assay in presence of GEM; format: functional
[16] = Cytotoxicity against human T24 cells treated at 2:1 and 5:1 alpha-lipoic acid to compound ratio after 48 hrs by SRB assay in presence of alpha-lipoic acid; format: functional, cell-based; details: T-24, 48 h
MRC5 [17] = assay: Cytotoxicity against human MRC5 cells assessed as dose reduction index ratio treated at sequential combination at 2:1 alpha-lipoic acid to compound ratio after 48 hrs by SRB assay in presence of alpha-lipoic acid; format: functional
A549 [18] = assay: Cytotoxicity against human A549 cells assessed as inhibition fraction treated at 5:1 alpha-lipoic acid to compound ratio after 48 hrs by SRB assay in presence of alpha-lipoic acid; format: functional
[19] = Cytotoxicity against human T24 cells treated at LA + compound sequent. LA for 24 hrs), LA + GEM (24 hrs additional, total 48 hrs) 5:1 alpha-lipoic acid to compound ratio after 48 hrs by SRB assay in presence of alpha-lipoic acid; format: functional, cell-based; details: T-24
MRC5 [20] = assay: Cytotoxicity against human MRC5 cells treated at LA + compound sequent. LA for 24 hrs), LA + GEM (24 hrs additional, total 48 hrs) 2:1 alpha-lipoic acid to compound ratio after 48 hrs by SRB assay in presence of alpha-lipoic acid; format: functional, cell-based
A549 [21] = assay: Induction of H2O2 level in human A549 cells at 1 uM after 5 to 30 mins by flow cytometry; format: functional, cell-based
A549 [22] = assay: Cytotoxicity against human A549 cells assessed as combination index treated at 5:1 alpha-lipoic acid to compound ratio after 48 hrs by SRB assay in presence of alpha-lipoic acid; format: functional
MRC5 [23] = assay: Cytotoxicity against human MRC5 cells treated at LA + compound sequent. LA for 24 hrs), LA + GEM (24 hrs additional, total 48 hrs) 5:1 alpha-lipoic acid to compound ratio after 48 hrs by SRB assay in presence of alpha-lipoic acid; format: functional, cell-based
MRC5 [24] = assay: Cytotoxicity against human MRC5 cells assessed as dose reduction index ratio treated at sequential combination at 5:1 alpha-lipoic acid to compound ratio after 48 hrs by SRB assay in presence of alpha-lipoic acid; format: functional
MRC5 [25] = assay: Cytotoxicity against human MRC5 cells assessed as dose reduction index ratio treated at simultaneous combination at 2:1 alpha-lipoic acid to compound ratio after 48 hrs by SRB assay in presence of alpha-lipoic acid; format: functional
MRC5 [26] = assay: Cytotoxicity against human MRC5 cells treated at 2:1 and 5:1 alpha-lipoic acid to compound ratio after 48 hrs by SRB assay in presence of alpha-lipoic acid; format: functional, cell-based; details: MRC5, 48 h
A549 [27] = assay: Cytotoxicity against human A549 cells assessed as dose reduction index ratio treated at simultaneous combination at 5:1 alpha-lipoic acid to compound ratio after 48 hrs by SRB assay in presence of alpha-lipoic acid; format: functional
A549 [28] = assay: Cytotoxicity against human A549 cells treated at LA + compound sequent. LA for 24 hrs), LA + GEM (24 hrs additional, total 48 hrs) 2:1 alpha-lipoic acid to compound ratio after 48 hrs by SRB assay in presence of alpha-lipoic acid; format: functional, cell-based
A549 [29] = assay: Cytotoxicity against human A549 cells assessed as dose reduction index ratio treated at sequential combination at 5:1 alpha-lipoic acid to compound ratio after 48 hrs by SRB assay in presence of alpha-lipoic acid; format: functional
A549 [30] = assay: Cytotoxicity against human A549 cells treated at 2:1 and 5:1 alpha-lipoic acid to compound ratio after 48 hrs by SRB assay in presence of alpha-lipoic acid; format: functional, cell-based; details: A549, 48 h
A549 [31] = assay: as §2, with “5:1 alpha-lipoic acid to” for “5:1”, “compound” for “compound to GEM”, “alpha-lipoic acid” for “GEM”; format: functional
A549 [32] = assay: Cytotoxicity against human A549 cells assessed as combination index treated at 2:1 alpha-lipoic acid to compound ratio after 48 hrs by SRB assay in presence of alpha-lipoic acid; format: functional
MRC5 [33] = assay: Cytotoxicity against human MRC5 cells assessed as dose reduction index ratio treated at simultaneous combination at 5:1 alpha-lipoic acid to compound ratio after 48 hrs by SRB assay in presence of alpha-lipoic acid; format: functional
A549 [34] = assay: Cytotoxicity against human A549 cells treated at LA + compound sequent. compound for 24 hrs, LA + compound for 24 hrs additional, total 48 hrs 2:1 and 5:1 alpha-lipoic acid to compound ratio after 48 hrs by SRB assay in presence of alpha-lipoic acid; format: functional, cell-based
[35] = Cytotoxicity against human T24 cells treated at LA + compound sequent. LA for 24 hrs), LA + GEM (24 hrs additional, total 48 hrs) 2:1 alpha-lipoic acid to compound ratio after 48 hrs by SRB assay in presence of alpha-lipoic acid; format: functional, cell-based; details: T-24
A549 [36] = assay: Cytotoxicity against human A549 cells assessed as dose reduction index ratio treated at simultaneous combination at 0.6 fraction inhibition after 48 hrs by SRB assay in presence of alpha-lipoic acid; format: functional
A549 [37] = assay: Cytotoxicity against human A549 cells treated at LA + compound sequent. LA for 24 hrs), LA + GEM (24 hrs additional, total 48 hrs) 5:1 alpha-lipoic acid to compound ratio after 48 hrs by SRB assay in presence of alpha-lipoic acid; format: functional, cell-based
A549 [38] = assay: Cytotoxicity against human A549 cells assessed as inhibition fraction treated at 2:1 alpha-lipoic acid to compound ratio after 48 hrs by SRB assay in presence of alpha-lipoic acid; format: functional
A549 [39] = assay: Cytotoxicity against human A549 cells assessed as combination index treated at sequential combination LA + compound sequent. compound for 24 hrs, LA + compound for 24 hrs additional, total 48 hrs 2:1 and 5:1 alpha-lipoic acid to compound ratio after 48 hrs by SRB assay in presence of alpha-lipoic acid; format: functional
[40] = Cytotoxicity against human T24 cells treated at LA + compound sequent. compound for 24 hrs, LA + compound for 24 hrs additional, total 48 hrs 2:1 and 5:1 alpha-lipoic acid to compound ratio after 48 hrs by SRB assay in presence of alpha-lipoic acid; format: functional, cell-based; details: T-24
MRC5 [41] = assay: Cytotoxicity against human MRC5 cells treated at LA + compound sequent. compound for 24 hrs, LA + compound for 24 hrs additional, total 48 hrs 2:1 and 5:1 alpha-lipoic acid to compound ratio after 48 hrs by SRB assay in presence of alpha-lipoic acid; format: functional, cell-based
A549 [42] = assay: Cytotoxicity against human A549 cells assessed as dose reduction index ratio treated at sequential combination at 2:1 alpha-lipoic acid to compound ratio after 48 hrs by SRB assay in presence of alpha-lipoic acid; format: functional

Nc1ccn([C@@H]2O[C@H](COC(=O)CCCC[C@@H]3CCSS3)[C@@H](O)C2(F)F)c(=O)n1
Ratio (MRC5 [1]): 1.24
Ratio (A549 [2]): 1.54
Ratio (T-24 [3]): 1.3
Activity (A549 [4]): Active
inhibition (MRC5 [5]): Dose-dependent effect
IC50 (MRC5 [5]): 5 nM
inhibition (A549 [6]): Dose-dependent effect
IC50 (A549 [6]): < 4.4 nM
IC50 [7]: 5.3 nM
inhibition (T-24 [8]): Dose-dependent effect

O=C(O)CCCCC1CCSS1 (stereo not drawn) [LIPOIC ACID, ALPHA]
Ratio (A549 [9]): 0.8
Inhibition_index (A549 [10]): 1243.87
Inhibition_index (A549 [11]): 1572.29
Ratio (A549 [12]): 0.85
Inhibition_index (A549 [13]): 488.47
Activity (A549 [14]): Active
inhibition (MRC5 [5]): Dose-dependent effect
IC50 (MRC5 [5]): > 100000 nM
inhibition (A549 [6]): Dose-dependent effect
IC50 (A549 [6]): > 100000 nM
IC50 [7]: > 100000 nM
inhibition (T-24 [8]): Dose-dependent effect
Ratio (A549 [15]): 0.9

Nc1ccn([C@@H]2O[C@H](CO)[C@@H](O)C2(F)F)c(=O)n1 [GEMCITABINE]
IC50 [16]: < 3.9 nM
CI (MRC5 [17]): 2.06
Ratio (A549 [18]): 0.1
IC50 [19]: 17 nM
IC50 (MRC5 [20]): 21.6 nM
Activity (A549 [21]): inactive
CI (A549 [22]): >1
IC50 (MRC5 [23]): 6.8 nM
CI (MRC5 [24]): 2.73
CI (MRC5 [25]): 8.15
IC50 (MRC5 [26]): < 3.9 nM
Inhibition_index (A549 [27]): 4.22
IC50 (A549 [28]): 29 nM
Inhibition_index (A549 [29]): 1.67
IC50 (A549 [30]): < 3.9 nM
Ratio (A549 [31]): 0.65
CI (A549 [32]): <1
CI (MRC5 [33]): 7.88
IC50 (A549 [34]): 3.9 nM
IC50 [35]: 18 nM
Inhibition_index (A549 [36]): 5.76
IC50 (A549 [37]): > 1000 nM
inhibition (MRC5 [5]): Dose-dependent effect
IC50 (MRC5 [5]): 6.3 nM
Ratio (A549 [38]): 0.6
CI (A549 [39]): >1
IC50 [40]: < 3.9 nM
IC50 (MRC5 [41]): < 3.9 nM
inhibition (A549 [6]): Dose-dependent effect
IC50 (A549 [6]): 6.8 nM
Inhibition_index (A549 [42]): 1.71
IC50 [7]: 6.9 nM
inhibition (T-24 [8]): Dose-dependent effect

Reference: ChEMBL document CHEMBL3421589, “Regioselective chemical and rapid enzymatic synthesis of a novel redox – Antiproliferative molecular hybrid” (Eur J Med Chem, 2015)
